The nature of data set [1]: Effect of gamma sterilization (25-35 kGy) on preservatives in buffer. In kind it is physicochemical. Particulars: for Result post-gamma sterilization: gamma sterilization 25-35 kGy. As to the method: In a preferred embodiment, sterilization is performed by use of a gamma irradiation system having a Cobalt-60 source. The system used in the examples and data presented below is a dual source (i.e. two source racks), affording continuous irradiation and wet storage. The sterilization range was 25-35 kGy, set by adjusting the time of exposure to a constant radiation source. All sterilization dose ranges were confirmed by dosimeters.
Cf. Table 3. We examined a variety of preservatives for use in this buffer.

Another data set concerns six different organisms. Particulars: over eight weeks, unsterile buffer.

Source text for six different organisms: We tested the Buffers according to USP protocol for “Antimicrobial Preservatives Effectiveness” (United States Pharmacopeia, Volume XXIV, Microbiological Tests, Section (51) Antimicrobial Effectiveness Testing, pp. 1809-11, Official Jan. 1, 2000).

For the compound `COC(=O)c1ccc(O)cc1` [Methyl paraben], the Result post-gamma sterilization result in data set [1] is listed as “Acidified”.
In the case of `CC(C)(C)CC(C)(C)c1ccc(OCCOCC[N+](C)(C)Cc2ccccc2)cc1` [Benzethonium chloride], in the data set with six different organisms, the “counts for five of the organisms” value is “no counts” and the “log reduction for the sixth organism” value is given as more than 3 log. For the same compound, the Result post-gamma sterilization result in data set [1] was “Acceptable”. Further, the “effect on the final buffer formulation with regard to pH level, stability, and cosmetic factors” value in data set [1] (gamma sterilization cycle) is reported as “minimal effect”.
`CCCOC(=O)c1ccc(O)cc1` [Propyl paraben]: the Result post-gamma sterilization result in data set [1] was “Precipitated”.
Take `N=C(NCCCCCCNC(=N)NC(=N)Nc1ccc(Cl)cc1)NC(=N)Nc1ccc(Cl)cc1` [Chlorohexidine]: the Result post-gamma sterilization result in data set [1] was “Precipitated”.
As for `Cl/C=C\C[N+]12CN3CN(CN(C3)C1)C2.[Cl-]` [Dowicil 200], in data set [1], the Result post-gamma sterilization result is reported as “Acidified, drifted”.
Turning to `O=C1C(N(CO)C(=O)NCO)N(CO)C(=O)N1CO` (stereo not shown) [Germall II], the Result post-gamma sterilization entry in data set [1] was “Strong acidification, evolved CO2”.
In the case of Benzalkonium chloride, the Result post-gamma sterilization result in data set [1] was “Precipitated”.
